# Literature values as cited in patent publication US6355670B1, “Use of estrogen antagonists and estrogen agonists in inhibiting pathological conditions” (Pfizer, Inc., priority 1996, dated 2002).
# Key:
# [1] = in vivo or in vitro
# estrogen receptor = molecular target: T1, estrogen receptor (Homo sapiens, UniProt P03372); settings: higher, relative to tamoxifen
# T1 sequence (P03372 1-595): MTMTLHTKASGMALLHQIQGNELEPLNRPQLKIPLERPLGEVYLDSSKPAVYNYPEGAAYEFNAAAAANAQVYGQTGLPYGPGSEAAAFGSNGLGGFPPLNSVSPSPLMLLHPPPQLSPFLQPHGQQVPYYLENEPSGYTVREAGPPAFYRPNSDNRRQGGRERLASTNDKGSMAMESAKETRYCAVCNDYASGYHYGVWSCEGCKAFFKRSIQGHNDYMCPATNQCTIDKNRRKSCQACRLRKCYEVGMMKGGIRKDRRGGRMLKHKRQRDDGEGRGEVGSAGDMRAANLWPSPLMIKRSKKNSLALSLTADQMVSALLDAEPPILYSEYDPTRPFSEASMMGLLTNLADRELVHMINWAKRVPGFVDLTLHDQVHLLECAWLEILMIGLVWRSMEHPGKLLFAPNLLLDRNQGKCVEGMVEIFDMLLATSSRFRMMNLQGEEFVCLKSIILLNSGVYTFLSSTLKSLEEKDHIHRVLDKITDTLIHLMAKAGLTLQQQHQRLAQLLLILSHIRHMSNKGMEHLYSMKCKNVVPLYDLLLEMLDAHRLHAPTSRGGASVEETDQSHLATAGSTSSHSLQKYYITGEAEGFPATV
# [2] = test system: streptozotocin diabetic rats; settings: implanted
# [3] = test system: intact or ovariectomized female rats
smiles,measurement,setting,value
"CC/C(=C(/c1ccc(OCCN(C)C)cc1)c1cccc(O)c1)c1ccccc1 [droloxifene, 3-hydroxytamoxifen]",carcinogenic or mutagenic effects,[1],devoid of in vivo or in vitro carcinogenic or nutagenic effects
same,binding affinity to the estrogen receptor compared to tamoxifen,estrogen receptor,10-60 fold
CC/C(=C(\c1ccccc1)c1ccc(OCCN(C)C)cc1)c1ccccc1 [tamoxifen],liver tumors,rats,causes liver tumors in rats
C[C@]12CC[C@H]3[C@@H](CCC4=CC(=O)CC[C@@]43C)[C@@H]1CC[C@@H]2O [testosterone],ability of residual insulin to maintain glycemic control,[2],antagonized the ability of residual insulin to maintain glycemic control
same,insulin resistance,[3],marked insulin resistance
